Reference: PMC10060354, “Discovery of a small molecule ligand of FRS2 that inhibits invasion and tumor growth” (Cellular Oncology, 2022)
Values joined by “and” are separate entries in the source; they are usually repeats but may differ in a detail not shown here. Equal entries are not always repeated. Where two headings read alike, the source gives them in different places. One block for each compound: values may come before it.

Experiments:
[1] = Cell viability (cytotoxicity, MTT) using HepG2; format: cell-based, human; settings: human, HepG2 cells, 72 h, summary sheet, read-out: MTT (AC50) Conc at which 50% of maximum efficacy is reached
Outline: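 Compounds were tested at 8 concentrations in triplicate on HepG2 cells plated 24 h beforehand, with 72 h exposure in 1% DMSO medium. MTT was loaded 1 h before the end, solubilized in DMSO and read at 570 nm. Minimum effective concentration is the lowest concentration exceeding the significance level, given dose-response or two consecutive points above it.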

Caco-2 cells = experiment: CaCo-2 permeability (bi-directional); settings: Direction A2B
Outline: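 Caco-2 monolayers (passage 40–60) cultured 20 days on Transwells, equilibrated 40 min in HBSS; compound dosed apically (A-B) or basolaterally (B-A) with 1% v/v DMSO and lucifer yellow integrity marker, in duplicate. LC–MS/MS quantification; Papp from permeation rate, C0 and monolayer area; efflux ratio = Papp(B-A)/Papp(A-B).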

[2] = system: FRS2 (Y436) phosphorylation; experiment: Immunoblotting, FRS2 phosphorylation; format: cell-based, human
Method: (§1) Cells were serum starved o.n. and 10 µM compound or 1 µM (BGJ398) were added 3 h before stimulation with 100 ng/ml bFGF for 15 min. Cells were lysed in RIPA buffer containing protease inhibitor cocktail and lysates resolved by SDS-PAGE. Membranes were probed with primary antibodies against phospho-FRS2, FRS2, phospho-ERK1/2, ERK1/2, pAKT, AKT and tubulin. Integrated density of immuno-reactive bands was quantified using Adobe Photoshop CS3. Integrated densities of phospho bands relative to non-phospho bands of same protein were calculated and plotted as fold-change relative to untreated control conditions. Compounds and BGJ398 were added in DMSO and corresponding DMSO concentrations were used in control samples.

ERK (pT202/Y204) = experiment: Immunoblotting, ERK phosphorylation; format: cell-based, human
Method: as §1

[3] = In vivo bioavailability / PK after 1 mg/kg IV or 10 mg/kg PO; set-up: species or system Male ICR mice; settings: for Vd: read-out: Vss; for C0: read-out: C0 after IV administration
Method: In vivo bioavailability studies were performed by Pharmacology Discovery Services Taiwan, Ltd., (New Taipei City, Taiwan). Male ICR mice weighing 20—30 g were provided by BioLasco Taiwan (under Charles River Laboratories Licensee). Animals were acclimated for 3 days prior to use and were confirmed with good health. All animals were maintained in a hygienic environment with controlled temperature (20—24 °C), humidity (30%—70%) and 12 h light/dark cycles. Free access to sterilized standard lab diet [MFG (Oriental Yeast Co., Ltd., Japan)] and autoclaved tap water. A pharmacokinetic (PK) study was performed in male ICR mice following intravenous (IV) and oral (PO) administration of compound 7 and E12 and IV administration of the test compound 3.14. The three test compounds (7, E12 and 3.14) were formulated in 1% dimethyl sulfoxide (DMSO)/10% Solutol® HS-15/ phosphate buffered saline (PBS) at 0.2 mg/mL and 1 mg/mL for IV and PO administration, respectively. The dosing volumes were 5 ml/kg for IV and 10 ml/kg for PO. The dose was 1 mg/kg for IV and 10 mg/kg for PO routes.

[4] = male, ICR, mouse, plasma, iv, 1 mg/kg, IV, read-out: AUClast
[5] = male, ICR, mouse, plasma, iv, 1 mg/kg, mice, 1 mg/kg IV, read-out: AUClast after IV administration
[6] = male, ICR, mouse, plasma, 1 mg/kg, IV
[7] = male, ICR, mouse, mice, 1 mg/kg IV, plasma
[8] = 10 mg/kg PO, time 0.167 h, mouse#1-3
[9] = 10 mg/kg PO, time 0.5 h, mouse#1-3
[10] = 10 mg/kg PO, time 1 h, mouse#1-3
[11] = 10 mg/kg PO, time 2 h, mouse#1-3
[12] = 10 mg/kg PO, time 4 h, mouse#1-3
[13] = 10 mg/kg PO, time 6 h, mouse#1-3
[14] = 10 mg/kg PO, time 8 h, mouse#1-3
[15] = 10 mg/kg PO, time 24 h, mouse#1-3
[16] = male, ICR, mouse, plasma, 10 mg/kg, PO
[17] = mg/kg IV, time 0.167 h, mouse#1-3
[18] = mg/kg IV, time 0.5 h, mouse#1-3

Structure (SMILES): N#Cc1c(Cl)cc(O)c2c1C1C=CCC1C(c1ccc(Cl)cc1)N2 (stereo not drawn) [Compound 14]
AC50 at 72 h [1]: 5.24 µM | Comments: A2B permeation (result in words) (Caco-2 cells): Test compound not detectable in receiver compartments A2B. | basal and bFGF-induced phosphorylation of FRS2Y436 (result in words) ([2]; RT-112 cells): reduced basal and bFGF-induced phosphorylation | basal and bFGF-induced phosphorylation of ERK (result in words) (ERK (pT202/Y204); DAOY, SW780, M059K, SKOV3, AGS, DMS114 and RT-112 cells, 10 µM compound or 1 µM BGJ398): inhibited basal and bFGF-induced phosphorylation

AUC Extr (%) ([3]; 1 mg/kg, IV): 0.5% | AUC(0-t) [3, 4]: 410 ng·h/mL | AUC(0-t) [3, 5]: 413 ng·h/mL | AUC(0-inf) [3, 6]: 413 ng·h/mL | MRT [3, 6]: 31.2 min | clearance [3, 6]: 40 mL/min/kg | half-life [3, 6]: 93 min | Vd [3, 6]: 1.3 L/kg | C0 [3, 7]: 2700 ng/mL | CL1/2 after IV administration ([3]; mice, 1 mg/kg IV): 1.55 h
Structure (SMILES): CC(C)C[C@@H](CO)NCc1cc(O)c2cc(F)ccc2n1 [Compound 3.14]
basal or bFGF-induced Y436 phosphorylation of FRS2 (result in words) ([2]; DAOY or SW780 cells, 10 µM compound): not effective in SW780 cells | pERK (result in words) (ERK (pT202/Y204); SW780 and AGS cells, 10 µM): significantly reduced pERK

AUC Extr (%) ([3]; 1 mg/kg, IV): 0.5% | in vivo PK raw, level per mouse [3, 8]: 13 and 10 and 15 | in vivo PK raw, level per mouse (µM) [3, 8]: 0.02964 µM and 0.04446 µM | in vivo PK raw, level per mouse [3, 9]: 16 and 11 and 3 | in vivo PK raw, level per mouse (µM) [3, 9]: 0.04742 µM and 0.0326 µM and 0.008892 µM | in vivo PK raw, level per mouse [3, 10]: 1 and 2 and 10 | in vivo PK raw, level per mouse [3, 11]: 3 and 0 and 2 | in vivo PK raw, level per mouse (µM) [3, 11]: 0.008892 µM and 0 µM and 0.005928 µM | in vivo PK raw, level per mouse [3, 12]: 5 and 2 (2×) | in vivo PK raw, level per mouse (µM) [3, 12]: 0.01482 µM and 0.005928 µM (2×) | in vivo PK raw, level per mouse [3, 13]: 0 (2×) and 2 | in vivo PK raw, level per mouse (µM) [3, 13]: 0 µM (2×) and 0.005928 µM | in vivo PK raw, level per mouse [3, 14]: 1 | in vivo PK raw, level per mouse (µM) [3, 14]: 0.002964 µM | in vivo PK raw, level per mouse [3, 15]: 0 | in vivo PK raw, level per mouse (µM) [3, 15]: 0 µM | AUC Extr (%) ([3]; 10 mg/kg, PO): 14.8% | AUC/D ([3]; 10 mg/kg, PO): 3 kg·ng·h/mL/mg | AUClast (H*ng/ml) ([3]; 10 mg/kg, PO): 22 H*ng/ml | AUC(0-t) [3, 4]: 85 ng·h/mL | concentration at 0.167 h ([3]; male, ICR, mouse, plasma, iv, 1 mg/kg, mg/kg IV, time 0.167 h, mouse#1-3, read-out: in vivo PK raw, level per mouse): 1360 nM | concentration at 0.5 h ([3]; male, ICR, mouse, plasma, iv, 1 mg/kg, mg/kg IV, time 0.5 h, mouse#1-3, read-out: in vivo PK raw, level per mouse): 305 nM | concentration at 1 h ([3]; male, ICR, mouse, plasma, iv, 1 mg/kg, mg/kg IV, time 1 h, mouse#1-3, read-out: in vivo PK raw, level per mouse): 29.6 nM | concentration at 2 h ([3]; male, ICR, mouse, plasma, iv, 1 mg/kg, mg/kg IV, time 2 h, mouse#1-3, read-out: in vivo PK raw, level per mouse): 5.93 nM | concentration at 4 h ([3]; male, ICR, mouse, plasma, iv, 1 mg/kg, mg/kg IV, time 4 h, mouse#1-3, read-out: in vivo PK raw, level per mouse): 0 nM | concentration at 6 h ([3]; male, ICR, mouse, plasma, iv, 1 mg/kg, mg/kg IV, time 6 h, mouse#1-3, read-out: in vivo PK raw, level per mouse): 0 nM | concentration at 8 h ([3]; male, ICR, mouse, plasma, iv, 1 mg/kg, mg/kg IV, time 8 h, mouse#1-3, read-out: in vivo PK raw, level per mouse): 0 nM | concentration at 24 h ([3]; male, ICR, mouse, plasma, iv, 1 mg/kg, mg/kg IV, time 24 h, mouse#1-3, read-out: in vivo PK raw, level per mouse): 0 nM | AUC(0-t) [3, 5]: 85 ng·h/mL | concentration at 0.167 h ([3]; male, ICR, mouse, plasma, oral, 10 mg/kg, 10 mg/kg PO, time 0.167 h, mouse#1-3, read-out: in vivo PK raw, level per mouse): 38.5 nM | concentration at 8 h ([3]; male, ICR, mouse, plasma, oral, 10 mg/kg, 10 mg/kg PO, time 8 h, mouse#1-3, read-out: in vivo PK raw, level per mouse): 2.96 nM | concentration at 24 h ([3]; male, ICR, mouse, plasma, oral, 10 mg/kg, 10 mg/kg PO, time 24 h, mouse#1-3, read-out: in vivo PK raw, level per mouse): 0 nM | AUC(0-t) ([3]; male, ICR, mouse, plasma, po, 10 mg/kg, mice, 10 mg/kg PO, read-out: AUClast after PO administration): 22 ng·h/mL | AUC(0-inf) [3, 6]: 86 ng·h/mL | MRT [3, 6]: 6.6 min | clearance [3, 6]: 195 mL/min/kg | half-life [3, 6]: 9 min | Vd [3, 6]: 1.3 L/kg | AUC(0-inf) [3, 16]: 26 ng·h/mL | MRT [3, 16]: 233 min | Tmax [3, 16]: 10.2 min | bioavailability [3, 16]: 3% | half-life [3, 16]: 163 min | C0 [3, 7]: 762 ng/mL | Cmax ([3]; male, ICR, mouse, mice, 10 mg/kg PO, plasma, read-out: Cmax (oral bioavailability) after PO administration): 13 ng/mL | in vivo PK raw, level per mouse [3, 17]: 459 and 369 and 455 | in vivo PK raw, level per mouse (µM) [3, 17]: 1.094 µM and 1.349 µM | in vivo PK raw, level per mouse [3, 18]: 103 and 104 and 127 | in vivo PK raw, level per mouse (µM) [3, 18]: 0.3082 µM and 0.3764 µM | in vivo PK raw, level per mouse ([3]; mg/kg IV, time 1 h, mouse#1-3): 10 and 13 and 14 | in vivo PK raw, level per mouse (µM) ([3]; mg/kg IV, time 1 h, mouse#1-3): 0.03853 µM and 0.04149 µM | in vivo PK raw, level per mouse ([3]; mg/kg IV, time 2 h, mouse#1-3): 2 | in vivo PK raw, level per mouse (µM) ([3]; mg/kg IV, time 2 h, mouse#1-3): 0.005928 µM | in vivo PK raw, level per mouse ([3]; mg/kg IV, time 4 h, mouse#1-3): 0 | in vivo PK raw, level per mouse (µM) ([3]; mg/kg IV, time 4 h, mouse#1-3): 0 µM | in vivo PK raw, level per mouse ([3]; mg/kg IV, time 6 h, mouse#1-3): 0 | in vivo PK raw, level per mouse (µM) ([3]; mg/kg IV, time 6 h, mouse#1-3): 0 µM | in vivo PK raw, level per mouse ([3]; mg/kg IV, time 8 h, mouse#1-3): 0 | in vivo PK raw, level per mouse (µM) ([3]; mg/kg IV, time 8 h, mouse#1-3): 0 µM | in vivo PK raw, level per mouse ([3]; mg/kg IV, time 24 h, mouse#1-3): 0 | in vivo PK raw, level per mouse (µM) ([3]; mg/kg IV, time 24 h, mouse#1-3): 0 µM | CL1/2 after IV administration ([3]; mice, 1 mg/kg IV): 0.15 h | CL1/2 after PO administration ([3]; mice, 10 mg/kg PO): 2.71 h
Structure (SMILES): Cc1[nH]nc(-c2ccc(O)c(C)c2O)c1-c1nc2ccccc2s1 [Compound E12]
AC50 at 72 h [1]: 23.7 µM | in vivo PK raw, level per mouse (µM) [3, 10]: 0.002964 µM and 0.005928 µM and 0.02964 µM
